Source: patent US7902373B2 (Pfizer Inc, priority 2006, dated 2011)

What follows are molecules tested against human recombinant H-PGDS (Homo sapiens, UniProt O60760) (assay: Fluorescence intensity h-PGDS TBA enzyme assay). Settings: Examples up to 622 (and 3a, 3b).
Format: biochemical

Chain of human recombinant H-PGDS (O60760 whole entry): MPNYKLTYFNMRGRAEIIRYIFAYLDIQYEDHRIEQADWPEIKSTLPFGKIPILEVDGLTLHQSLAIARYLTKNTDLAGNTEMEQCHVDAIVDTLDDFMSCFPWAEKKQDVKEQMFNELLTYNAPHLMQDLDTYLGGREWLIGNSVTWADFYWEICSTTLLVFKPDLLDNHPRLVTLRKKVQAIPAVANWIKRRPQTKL

Row | SMILES | IC50 [nM]
1 | Cc1ccc(CN2CCC(NC(=O)c3ccc(-c4cccc(F)c4)nc3)CC2)cc1F [Example 202, N-[1-(3-Fluoro-4-methylbenzyl)piperidin-4-yl]-6-(3-fluorophenyl)nicotinamide] | 1.17
2 | CC(C)(C)OC(=O)NC1(CN2CCC(NC(=O)c3ccc(-c4cccc(F)c4)nc3)CC2)CC1 [Example 203, tert-Butyl(1-{[4-({[6-(3-fluorophenyl)pyridin-3-yl]carbonyl}amino)piperidin-1-yl]methyl}cyclopropyl)carbamate] | 2.17
3 | COc1ccc(CN2CCC(NC(=O)c3ccc(-c4cccc(F)c4)nc3)CC2)cc1Cl [Example 204, N-[1-(3-Chloro-4-methoxybenzyl)piperidin-4-yl]-6-(3-fluorophenyl)nicotinamide] | 0.067
4 | COc1ccc(OC)c(CN2CCC(NC(=O)c3ccc(-c4cccc(F)c4)nc3)CC2)c1 [Example 205, N-[1-(2,5-Dimethoxybenzyl)piperidin-4-yl]-6-(3-fluorophenyl)nicotinamide] | 0.238
5 | CC(C)Oc1cccc(CN2CCC(NC(=O)c3ccc(-c4cccc(F)c4)nc3)CC2)c1 [Example 206, 6-(3-Fluorophenyl)-N-[1-(3-isopropoxybenzyl)piperidin-4-yl]nicotinamide] | 1.84
6 | Cn1c(CN2CCC(NC(=O)c3ccc(-c4cccc(F)c4)nc3)CC2)cc2ccccc21 [Example 207, 6-(3-Fluorophenyl)-N-{1-[(1-methyl-1H-indol-2-yl)methyl]piperidin-4-yl}nicotinamide] | 1.59
7 | CCc1ncc(CN2CCC(NC(=O)c3ccc(-c4cccc(F)c4)nc3)CC2)[nH]1 [Example 208, N-{1-[(2-Ethyl-1H-imidazol-5-yl)methyl]piperidin-4-yl}-6-(3-fluorophenyl)nicotinamide] | 5.98
8 | Cc1nn(C(C)(C)C)c(C)c1CN1CCC(NC(=O)c2ccc(-c3cccc(F)c3)nc2)CC1 [Example 209, N-{1-[(1-tert-Butyl-3,5-dimethyl-1H-pyrazol-4-yl)methyl]piperidin-4-yl}-6-(3-fluorophenyl)nicotinamide] | 1.37
9 | O=C(NC1CCN(Cc2ccc(-n3cccn3)cc2)CC1)c1ccc(-c2cccc(F)c2)nc1 [Example 210, 6-(3-Fluorophenyl)-N-{1-[4-(1H-pyrazol-1-yl)benzyl]piperidin-4-yl}nicotinamide] | 0.46
10 | COc1cccc(F)c1CN1CCC(NC(=O)c2ccc(-c3cccc(F)c3)nc2)CC1 [Example 211, N-[1-(2-Fluoro-6-methoxybenzyl)piperidin-4-yl]-6-(3-fluorophenyl)nicotinamide] | 0.453
11 | COc1ccc(CC2CC(NC(=O)c3ccc(-c4cccc(F)c4)nc3)CCN2)cc1OC (centres unmarked) [Example 212, N-[2-(3,4-Dimethoxybenzyl)piperidin-4-yl]-6-(3-fluorophenyl)nicotinamide] | 1.4
12 | N#Cc1ccccc1CN1CCC(NC(=O)c2ccc(-c3cccc(F)c3)nc2)CC1 [Example 213, N-[1-(2-Cyanobenzyl)piperidin-4-yl]-6-(3-fluorophenyl)nicotinamide] | 0.469
13 | CN(C)CCCOc1ccc(CN2CCC(NC(=O)c3ccc(-c4cccc(F)c4)nc3)CC2)cc1 [Example 214, N-(1-{4-[3-(Dimethylamino)propoxy]benzyl}piperidin-4-yl)-6-(3-fluorophenyl)nicotinamide] | 5.55
14 | Cn1ccnc1CN1CCC(NC(=O)c2ccc(-c3cccc(F)c3)nc2)CC1 [Example 215, 6-(3-Fluorophenyl)-N-{1-[(1-methyl-1H-imidazol-2-yl)methyl]piperidin-4-yl}nicotinamide] | 0.38
15 | O=C(NC1CCN(Cc2nccs2)CC1)c1ccc(-c2cccc(F)c2)nc1 [Example 216, 6-(3-Fluorophenyl)-N-[1-(1,3-thiazol-2-ylmethyl)piperidin-4-yl]nicotinamide] | 0.36
16 | CC(C)Oc1ccc(CN2CCC(NC(=O)c3ccc(-c4cccc(F)c4)nc3)CC2)cc1 [Example 217, 6-(3-Fluorophenyl)-N-[1-(4-isopropoxybenzyl)piperidin-4-yl]nicotinamide] | 1.51
17 | O=C(NC1CCN(Cc2cc(F)c(F)cc2F)CC1)c1ccc(-c2cccc(F)c2)nc1 [Example 218, 6-(3-Fluorophenyl)-N-[1-(245-trifluorobenzyl)piperidin-4-yl]nicotinamide] | 0.448
18 | Cn1c(CN2CCC(NC(=O)c3ccc(-c4cccc(F)c4)nc3)CC2)nc2ccccc21 [Example 219, 6-(3-Fluorophenyl)-N-{1-[(1-methyl-1H-benzimidazol-2-yl)methyl]piperidin-4-yl}nicotinamide] | 0.749
19 | COc1ccc(CN2CCC(NC(=O)c3ccc(-c4cccc(F)c4)nc3)CC2)c(OC)c1 [Example 220, N-[1-(2,4-Dimethoxybenzyl)piperidin-4-yl]-6-(3-fluorophenyl)nicotinamide] | 2.42
20 | O=C(NC1CCN(CC2CC=CCC2)CC1)c1ccc(-c2cccc(F)c2)nc1 (centres unmarked) [Example 221, N-[1-(Cyclohex-3-en-1-ylmethyl)piperidin-4-yl]-6-(3-fluorophenyl)nicotinamide] | 0.446
21 | COc1ccc(CN2CCC(NC(=O)c3ccc(-c4cccc(F)c4)nc3)CC2)cc1 [Example 222, 6-(3-Fluorophenyl)-N-[1-(4-methoxybenzyl)piperidin-4-yl]nicotinamide] | 6.64

Row | SMILES | IC50 [nM]
22 | O=C(NC1CCN(Cc2cc(Br)ccc2O)CC1)c1ccc(-c2cccc(F)c2)nc1 [Example 223, N-[1-(5-Bromo-2-hydroxybenzyl)piperidin-4-yl]-6-(3-fluorophenyl)nicotinamide] | 0.928
23 | COc1cccc(CN2CCC(NC(=O)c3ccc(-c4cccc(F)c4)nc3)CC2)c1 [Example 224, 6-(3-Fluorophenyl)-N-[1-(3-methoxybenzyl)piperidin-4-yl]nicotinamide] | 0.342
24 | O=C(NC1CCN(Cc2ccc(Cl)cc2)CC1)c1ccc(-c2cccc(F)c2)nc1 [Example 225, N-[1-(4-Chlorobenzyl)piperidin-4-yl]-6-(3-fluorophenyl)nicotinamide] | 2.48
25 | COc1ccc2[nH]cc(CN3CCC(NC(=O)c4ccc(-c5cccc(F)c5)nc4)CC3)c2c1 [Example 226, 6-(3-Fluorophenyl)-N-{1-[(5-methoxy-1H-indol-3-yl)methyl]piperidin-4-yl}nicotinamide] | 1.42
26 | N#Cc1ccc(CN2CCC(NC(=O)c3ccc(-c4cccc(F)c4)nc3)CC2)cc1 [Example 227, N-[1-(4-Cyanobenzyl)piperidin-4-yl]-6-(3-fluorophenyl)nicotinamide] | 0.815
27 | CCOc1ccc(CN2CCC(NC(=O)c3ccc(-c4cccc(F)c4)nc3)CC2)cc1OCC [Example 228, N-[1-(3,4-Diethoxybenzyl)piperidin-4-yl]-6-(3-fluorophenyl)nicotinamide] | 2.5
28 | CCOc1ccccc1CN1CCC(NC(=O)c2ccc(-c3cccc(F)c3)nc2)CC1 [Example 229, N-[1-(2-Ethoxybenzyl)piperidin-4-yl]-6-(3-fluorophenyl)nicotinamide] | 0.509
29 | COc1cccc(CN2CCC(NC(=O)c3ccc(-c4cccc(F)c4)nc3)CC2)c1OC [Example 230, N-[1-(2,3-Dimethoxybenzyl)piperidin-4-yl]-6-(3-fluorophenyl)nicotinamide] | 0.53
30 | COc1ccccc1CN1CCC(NC(=O)c2ccc(-c3cccc(F)c3)nc2)CC1 [Example 231, 6-(3-Fluorophenyl)-N-[1-(2-methoxybenzyl)piperidin-4-yl]nicotinamide] | 0.552
31 | Cc1c(CN2CCC(NC(=O)c3ccc(-c4cccc(F)c4)nc3)CC2)c(=O)n(-c2ccccc2)n1C [Example 232, N-{1-[(1,5-Dimethyl-3-oxo-2-phenyl-2,3-dihydro-1H-pyrazol-4-yl)methyl]piperidin-4-yl}-6-(3-fluorophenyl)nicotinamide] | 2.71
32 | O=C(NC1CCN(Cc2cccc(Cl)c2)CC1)c1ccc(-c2cccc(F)c2)nc1 [Example 233, N-[1-(3-Chlorobenzyl)piperidin-4-yl]-6-(3-fluorophenyl)nicotinamide] | 0.352
33 | CCOc1ccc(CN2CCC(NC(=O)c3ccc(-c4cccc(F)c4)nc3)CC2)cc1 [Example 234, N-[1-(4-Ethoxybenzyl)piperidin-4-yl]-6-(3-fluorophenyl)nicotinamide] | 1.65
34 | COc1ccc(CN2CCC(NC(=O)c3ccc(-c4cccc(F)c4)nc3)CC2)cc1C [Example 235, 6-(3-Fluorophenyl)-N-[1-(4-methoxy-3-methylbenzyl)piperidin-4-yl]nicotinamide] | 1.98
35 | O=C(NC1CCN(Cc2ccc(F)c(F)c2F)CC1)c1ccc(-c2cccc(F)c2)nc1 [Example 236, 6-(3-Fluorophenyl)-N-[1-(2,3,4-trifluorobenzyl)piperidin-4-yl]nicotinamide] | 0.577
36 | O=C(NC1CCN(Cc2ccc(F)cc2F)CC1)c1ccc(-c2cccc(F)c2)nc1 [Example 237, N-[1-(2,4-Difluorobenzyl)piperidin-4-yl]-6-(3-fluorophenyl)nicotinamide] | 0.698
37 | N#Cc1cccc(CN2CCC(NC(=O)c3ccc(-c4cccc(F)c4)nc3)CC2)c1 [Example 238, N-[1-(3-Cyanobenzyl)piperidin-4-yl]-6-(3-fluorophenyl)nicotinamide] | 0.135
38 | O=C(NC1CCN(Cc2cc(F)ccc2F)CC1)c1ccc(-c2cccc(F)c2)nc1 [Example 239, N-[1-(2,5-Difluorobenzyl)piperidin-4-yl]-6-(3-fluorophenyl)nicotinamide] | 0.245
39 | O=C(NC1CCN(Cc2cccc(F)c2F)CC1)c1ccc(-c2cccc(F)c2)nc1 [Example 240, N-[1-(2,3-Difluorobenzyl)piperidin-4-yl]-6-(3-fluorophenyl)nicotinamide] | 0.181
40 | O=C(NC1CCN(Cc2ccc3c(c2)OCCO3)CC1)c1ccc(-c2cccc(F)c2)nc1 [Example 241, N-[1-(2,3-Dihydro-14-benzodioxin-6-ylmethyl)piperidin-4-yl]-6-(3-fluorophenyl)nicotinamide] | 2.19
41 | Cn1cc(CN2CCC(NC(=O)c3ccc(-c4cccc(F)c4)nc3)CC2)c2ccccc21 [Example 242, 6-(3-Fluorophenyl)-N-{1-[(1-methyl-1H-indol-3-yl)methyl]piperidin-4-yl}nicotinamide] | 0.781
